In test [1] the target is T1, A2BAR (Homo sapiens, UniProt P29275).
T1 sequence (P29275 1-332): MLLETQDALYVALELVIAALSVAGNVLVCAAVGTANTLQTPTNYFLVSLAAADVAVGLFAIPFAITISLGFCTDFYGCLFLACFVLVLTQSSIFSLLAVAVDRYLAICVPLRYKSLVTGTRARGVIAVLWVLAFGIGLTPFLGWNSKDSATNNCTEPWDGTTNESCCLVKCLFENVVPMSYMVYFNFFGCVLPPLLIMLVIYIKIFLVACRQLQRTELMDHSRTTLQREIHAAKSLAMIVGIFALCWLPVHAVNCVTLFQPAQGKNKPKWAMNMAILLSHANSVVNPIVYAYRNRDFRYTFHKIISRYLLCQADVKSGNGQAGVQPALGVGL
Kind of test: Functional assay for the A2BAR in CHO cells. Conditions: for functional activity at A2BAR: inactive refers to 10 µM. The test is classed as cell-based.

The target in test [2] is T2, A1AR (Homo sapiens, UniProt P30542).
T2 sequence (P30542 1-326): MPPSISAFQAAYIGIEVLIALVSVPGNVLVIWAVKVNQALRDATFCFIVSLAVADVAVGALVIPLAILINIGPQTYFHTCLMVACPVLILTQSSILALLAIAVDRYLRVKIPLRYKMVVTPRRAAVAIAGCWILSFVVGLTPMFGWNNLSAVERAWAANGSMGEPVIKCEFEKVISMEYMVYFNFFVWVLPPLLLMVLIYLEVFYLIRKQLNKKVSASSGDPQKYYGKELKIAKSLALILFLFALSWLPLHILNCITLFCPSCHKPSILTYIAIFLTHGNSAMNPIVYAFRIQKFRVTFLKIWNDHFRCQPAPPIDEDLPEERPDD
The settings on record: cAMP assay.

The target of test [3] is T3, hA1AR (Homo sapiens, UniProt P30542).
T3 sequence (P30542 1-326): T2 sequence (P30542 1-326)
Put plainly: Radioligand binding at human A1AR, membranes of CHO cells. The settings on record: for inhibition at 10 µM: read-out: % inhibition at 10 µM A1AR; for % inhibition at 30 µM A1AR: radioligand displacement at 30 µM, bases; for inhibition at 30 µM: read-out: % inhibition at 30 µM A1AR.

Test [4] deals with hA2AAR (Homo sapiens, UniProt P29274). Kind of test: Radioligand binding at human A2AAR, membranes of HEK293 cells. Conditions: for inhibition at 10 µM: read-out: % inhibition at 10 µM A2AAR; for % inhibition at 30 µM A2AAR: radioligand displacement at 30 µM, bases; for inhibition at 30 µM: read-out: % inhibition at 30 µM A2AAR.
Test [5] addresses T4, A3AR (Homo sapiens, UniProt P0DMS8).
T4 sequence (P0DMS8 1-318): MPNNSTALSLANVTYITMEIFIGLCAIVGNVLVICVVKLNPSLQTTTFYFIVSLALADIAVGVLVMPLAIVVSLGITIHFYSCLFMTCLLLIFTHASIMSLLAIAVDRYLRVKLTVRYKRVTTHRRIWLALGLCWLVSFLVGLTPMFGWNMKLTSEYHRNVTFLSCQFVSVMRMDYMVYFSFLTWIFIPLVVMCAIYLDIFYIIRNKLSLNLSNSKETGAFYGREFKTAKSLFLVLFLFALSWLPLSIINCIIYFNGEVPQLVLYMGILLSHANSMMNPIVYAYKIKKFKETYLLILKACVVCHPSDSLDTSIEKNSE

Test [6] addresses T5, hA3AR (Homo sapiens, UniProt P0DMS8).
T5 sequence (P0DMS8 1-318): T4 sequence (P0DMS8 1-318)
Put plainly: Radioligand binding at human A3AR, membranes of CHO cells. The settings on record: for % inhibition at 30 µM A3AR: radioligand displacement at 30 µM, bases; for inhibition at 30 µM: read-out: % inhibition at 30 µM A3AR.

The structures appear in SMILES notation. “Also recorded” adds a separate entry of the source.

Chain of hA2AAR (P29274 whole entry): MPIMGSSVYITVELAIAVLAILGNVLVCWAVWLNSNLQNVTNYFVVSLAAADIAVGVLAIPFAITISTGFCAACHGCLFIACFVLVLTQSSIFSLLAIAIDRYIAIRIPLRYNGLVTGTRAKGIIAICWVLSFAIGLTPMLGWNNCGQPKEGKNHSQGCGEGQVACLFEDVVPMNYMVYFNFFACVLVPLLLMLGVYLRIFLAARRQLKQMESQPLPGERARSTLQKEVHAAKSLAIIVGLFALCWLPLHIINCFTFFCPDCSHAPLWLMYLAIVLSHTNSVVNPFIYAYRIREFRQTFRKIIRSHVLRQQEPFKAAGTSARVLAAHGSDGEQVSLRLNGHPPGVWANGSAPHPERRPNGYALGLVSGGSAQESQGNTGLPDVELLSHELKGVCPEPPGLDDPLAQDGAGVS

`Nc1ccnc2c1ncn2[C@@H]1O[C@H](CO)[C@@H](O)[C@H]1O` [Compound 5, 1-deazaadenosine]: in test [1], the EC50 is 1.5 µM and the “functional activity at A2BAR” value is listed as “full agonists”.

Regarding `Nc1nccc2c1ncn2[C@@H]1O[C@H](CO)[C@@H](O)[C@H]1O` [Compound 6, 3-deazaadenosine], the “functional activity at A2BAR” value in test [1] was “inactive”. In test [2], the “functional activity at A1AR” value is “no influence on cAMP levels was detected; also recorded: lost the ability to activate the receptor”.

As for `Nc1cccc2c1ncn2[C@@H]1O[C@H](CO)[C@@H](O)[C@H]1O` [Compound 7, 1,3-dideazaadenosine], the values for the inhibition at 10 µM in test [3] and in test [4] were 15 ± 2% and 5 ± 2%, respectively. Moreover, in test [4] (radioligand displacement at 10 µM, mean ± standard error, three experiments), the “% inhibition at 10 µM A2AAR” value is listed as “completely lost affinity”. Moreover, the “functional activity at A3AR” value in test [5] (cAMP assay, 10 µM for compound 11) is given as “strongly selective agonist”.

As to `Nc1nc(=O)[nH]c2c1ncn2[C@@H]1O[C@H](CO)[C@@H](O)[C@H]1O` [Compound 9, isoguanosine], in test [1], it took 3.1 µM to reach a half-maximal effect (EC50) and the “functional activity at A2BAR” value is listed as “full agonists”.

As to `Nc1ncn([C@@H]2O[C@H](CO)[C@@H](O)[C@H]2O)c(=O)n1` [Compound 12, 5-azacytidine], in test [4], the inhibition at 10 µM was 34 ± 2%. In addition, the Emax in test [5] (CHO, read-out: maximal efficacy A3AR) was ~30%.

Consider `Cc1cn([C@@H]2O[C@H](CO)[C@@H](O)[C@H]2O)c(=O)nc1N` [Compound 13, 5-methylcytidine], for which the inhibition at 10 µM in test [3] came out at 10 ± 3%; in test [4], 13 ± 9%.

On to `Nc1ncnc2[nH]cnc12` [Compound 26, adenine], for which, in test [3], the “% inhibition at 30 µM A1AR” value is on record as “No significant displacement” and the inhibition at 30 µM worked out at 19 ± 8%. Also, in test [4], the “% inhibition at 30 µM A2AAR” value is given as “No significant displacement” and the inhibition at 30 µM came to 19 ± 8%. The “% inhibition at 30 µM A3AR” value in test [6] is “No significant displacement”.

Take `Cn1c(=O)[nH]c2nc[nH]c2c1=O` [Compound 28, 1-methylxanthine]: the inhibition at 30 µM in test [4] turned out to be 40 ± 8%; in test [6], 36 ± 6%.

As for `Nc1nc[nH]c(=O)c1Cl` [Compound 29, 6-amino-5-chloropyrimidin-4(3H)-one], in test [3], the “% inhibition at 30 µM A1AR” value is listed as “No significant displacement” and the inhibition at 30 µM came to 11 ± 3%. Further, in test [4], the “% inhibition at 30 µM A2AAR” value is given as “No significant displacement”. In test [6], the “% inhibition at 30 µM A3AR” value is given as “No significant displacement” and the inhibition at 30 µM was found to be 19 ± 5%.

Values taken from PMC5207038 (ACS chemical biology, 2016).
